Measurements published in patent publication US12077503B2, “Substituted cyclic amides and their use as herbicides” (FMC CORPORATION, priority 2015, dated 2024).

Tests used:
Format in all cases: in vivo
[1] = test system: barnyardgrass (Echinochloa crus-galli); experiment: Test G Post-Emergence Protocol; conditions: Echinochloa crus-galli, post-emergence, 312 h; for pest or weed control at 15.625 g/ha: 15.625 g ai/ha, evaluated after 13 days (100=total damage to plant; 0=no damage to plant), read-out: Barnyardgrass damage rating; for pest or weed control at 62.5 g/ha: 62.5 g ai/ha, read-out: Barnyardgrass damage rating (100=total damage to plant; 0=no damage to plant); for pest or weed control at 62.5 g/ha / pest or weed control at 250 g/ha: evaluated after 13 days; for pest or weed control at 250 g/ha: 250 g ai/ha, read-out: damage to plant, Barnyardgrass (100=total damage to plant; 0=no damage to plant)
How it was run: (§1)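 Damage was rated 13 days after treatment from 0 (none) to 100 (plant killed). Compound was applied as a spray at 15.625, 62.5 or 250 g/ha in 50:50 acetone/water containing 0.5% Tween 20, onto 8-day-old potted plants kept in a glasshouse (24/16 °C, 14 h light, 65% humidity).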

[2] = test system: giant foxtail (Setaria faberi); experiment: Test G Post-Emergence Protocol; conditions: Setaria faberi, post-emergence, 312 h; for pest or weed control at 15.625 g/ha: 15.625 g ai/ha, evaluated after 13 days (100=total damage to plant; 0=no damage to plant), read-out: Foxtail, Giant damage rating; for pest or weed control at 62.5 g/ha: 62.5 g ai/ha, read-out: Foxtail, Giant damage rating (100=total damage to plant; 0=no damage to plant); for pest or weed control at 62.5 g/ha / pest or weed control at 250 g/ha: evaluated after 13 days; for pest or weed control at 250 g/ha: 250 g ai/ha, read-out: damage to plant, Foxtail, Giant (100=total damage to plant; 0=no damage to plant)
How it was run: as §1

[3] = test system: velvetleaf (Abutilon theophrasti); experiment: Test G Post-Emergence Protocol; conditions: Abutilon theophrasti, post-emergence, 312 h; for pest or weed control at 15.625 g/ha: 15.625 g ai/ha, evaluated after 13 days (100=total damage to plant; 0=no damage to plant), read-out: Velvetleaf damage rating; for pest or weed control at 62.5 g/ha: 62.5 g ai/ha, read-out: Velvetleaf damage rating (100=total damage to plant; 0=no damage to plant); for pest or weed control at 62.5 g/ha / pest or weed control at 250 g/ha: evaluated after 13 days; for pest or weed control at 250 g/ha: 250 g ai/ha, read-out: damage to plant, Velvetleaf (100=total damage to plant; 0=no damage to plant)
How it was run: as §1

[4] = test system: ivy-leaved morning glory (Ipomoea hederacea); experiment: Test G Post-Emergence Protocol; conditions: Ipomoea, post-emergence, 312 h; for pest or weed control at 15.625 g/ha: 15.625 g ai/ha, evaluated after 13 days (100=total damage to plant; 0=no damage to plant), read-out: Morningglory, Ivy-leaved damage rating; for pest or weed control at 62.5 g/ha: 62.5 g ai/ha, read-out: Morningglory, Ivy-leaved damage rating (100=total damage to plant; 0=no damage to plant); for pest or weed control at 62.5 g/ha / pest or weed control at 250 g/ha: evaluated after 13 days; for pest or weed control at 250 g/ha: 250 g ai/ha, read-out: damage to plant, Morningglory, Ivy-leaved (100=total damage to plant; 0=no damage to plant)
How it was run: as §1

corn (Zea mays) [5] = experiment: Test G Post-Emergence Protocol; conditions: Zea mays, post-emergence, 312 h; for plant injury at 15.625 g/ha: 15.625 g ai/ha, evaluated after 13 days (100=total damage to plant; 0=no damage to plant), read-out: Corn damage rating; for plant injury at 62.5 g/ha: 62.5 g ai/ha, read-out: Corn damage rating (100=total damage to plant; 0=no damage to plant); for plant injury at 62.5 g/ha / plant injury at 250 g/ha: evaluated after 13 days; for plant injury at 250 g/ha: 250 g ai/ha, read-out: damage to plant, Corn (100=total damage to plant; 0=no damage to plant)
How it was run: as §1

[6] = test system: redroot pigweed (Amaranthus retroflexus); experiment: Test G Post-Emergence Protocol; conditions: Amaranthus retroflexus, post-emergence, 312 h; for pest or weed control at 15.625 g/ha: 15.625 g ai/ha, evaluated after 13 days (100=total damage to plant; 0=no damage to plant), read-out: Pigweed, Redroot damage rating; for pest or weed control at 62.5 g/ha: 62.5 g ai/ha, read-out: Pigweed, Redroot damage rating (100=total damage to plant; 0=no damage to plant); for pest or weed control at 62.5 g/ha / pest or weed control at 250 g/ha: evaluated after 13 days; for pest or weed control at 250 g/ha: 250 g ai/ha, read-out: damage to plant, Pigweed, Redroot (100=total damage to plant; 0=no damage to plant)
How it was run: as §1

[7] = test system: barnyardgrass (Echinochloa crus-galli); experiment: Test G Pre-Emergence Protocol; conditions: Echinochloa crus-galli, pre-emergence, 312 h, evaluated after 13 days; for pest or weed control at 15.625 g/ha: 15.625 g ai/ha, read-out: Barnyard grass damage rating (100=total damage to plant; 0=no damage to plant); for pest or weed control at 62.5 g/ha: 62.5 g ai/ha, 100=total damage to plant, 0=no damage to plant, read-out: plant damage rating, Barnyardgrass; for pest or weed control at 250 g/ha: 250 g ai/ha, read-out: Barnyardgrass damage rating (100=total damage to plant; 0=no damage to plant)
How it was run: (§2)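 Spraying took place one day after sowing, at 15.625, 62.5 or 250 g/ha, using an acetone/water (50:50) spray solution containing 0.5% Tween 20. Plants were kept under glasshouse conditions (24/16 °C, 14 h light, 65% humidity, watered twice daily), and injury was rated 0–100 at day 13.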

[8] = test system: giant foxtail (Setaria faberi); experiment: Test G Pre-Emergence Protocol; conditions: Setaria faberi, pre-emergence, 312 h, evaluated after 13 days; for pest or weed control at 15.625 g/ha: 15.625 g ai/ha; for pest or weed control at 15.625 g/ha / pest or weed control at 250 g/ha: read-out: Foxtail, Giant damage rating (100=total damage to plant; 0=no damage to plant); for pest or weed control at 62.5 g/ha: 62.5 g ai/ha, 100=total damage to plant, 0=no damage to plant, read-out: plant damage rating, Foxtail, Giant; for pest or weed control at 250 g/ha: 250 g ai/ha
How it was run: as §2

[9] = test system: velvetleaf (Abutilon theophrasti); experiment: Test G Pre-Emergence Protocol; conditions: Abutilon theophrasti, pre-emergence, 312 h, evaluated after 13 days; for pest or weed control at 15.625 g/ha: 15.625 g ai/ha; for pest or weed control at 15.625 g/ha / pest or weed control at 250 g/ha: read-out: Velvetleaf damage rating (100=total damage to plant; 0=no damage to plant); for pest or weed control at 62.5 g/ha: 62.5 g ai/ha, 100=total damage to plant, 0=no damage to plant, read-out: plant damage rating, Velvetleaf; for pest or weed control at 250 g/ha: 250 g ai/ha
How it was run: as §2

[10] = test system: ivy-leaved morning glory (Ipomoea hederacea); experiment: Test G Pre-Emergence Protocol; conditions: Ipomoea, pre-emergence, 312 h, evaluated after 13 days; for pest or weed control at 15.625 g/ha: 15.625 g ai/ha, read-out: Morning-glory, Ivy-leaved damage rating (100=total damage to plant; 0=no damage to plant); for pest or weed control at 62.5 g/ha: 62.5 g ai/ha, 100=total damage to plant, 0=no damage to plant, read-out: plant damage rating, Morningglory, Ivy-leaved; for pest or weed control at 250 g/ha: 250 g ai/ha, read-out: Morningglory, Ivy-leaved damage rating (100=total damage to plant; 0=no damage to plant)
How it was run: as §2

corn (Zea mays) [11] = experiment: Test G Pre-Emergence Protocol; conditions: Zea mays, pre-emergence, 312 h, evaluated after 13 days; for plant injury at 15.625 g/ha: 15.625 g ai/ha; for plant injury at 15.625 g/ha / plant injury at 250 g/ha: read-out: Corn damage rating (100=total damage to plant; 0=no damage to plant); for plant injury at 62.5 g/ha: 62.5 g ai/ha, 100=total damage to plant, 0=no damage to plant, read-out: plant damage rating, Corn; for plant injury at 250 g/ha: 250 g ai/ha
How it was run: as §2

[12] = test system: redroot pigweed (Amaranthus retroflexus); experiment: Test G Pre-Emergence Protocol; conditions: Amaranthus retroflexus, pre-emergence, 312 h, evaluated after 13 days; for pest or weed control at 15.625 g/ha: 15.625 g ai/ha; for pest or weed control at 15.625 g/ha / pest or weed control at 250 g/ha: read-out: Pigweed, Redroot damage rating (100=total damage to plant; 0=no damage to plant); for pest or weed control at 62.5 g/ha: 62.5 g ai/ha, 100=total damage to plant, 0=no damage to plant, read-out: plant damage rating, Pigweed, Redroot; for pest or weed control at 250 g/ha: 250 g ai/ha
How it was run: as §2

Row | SMILES | pest or weed control at 15.625 g/ha [1] | pest or weed control at 62.5 g/ha [1] | pest or weed control at 250 g/ha [1] | pest or weed control at 15.625 g/ha [2] | pest or weed control at 62.5 g/ha [2] | pest or weed control at 250 g/ha [2] | pest or weed control at 15.625 g/ha [3] | pest or weed control at 62.5 g/ha [3] | pest or weed control at 250 g/ha [3] | pest or weed control at 15.625 g/ha [4] | pest or weed control at 62.5 g/ha [4] | pest or weed control at 250 g/ha [4] | plant injury at 15.625 g/ha (corn (Zea mays) [5]) | plant injury at 62.5 g/ha (corn (Zea mays) [5]) | plant injury at 250 g/ha (corn (Zea mays) [5]) | pest or weed control at 15.625 g/ha [6] | pest or weed control at 62.5 g/ha [6] | pest or weed control at 250 g/ha [6] | pest or weed control at 15.625 g/ha [7] | pest or weed control at 62.5 g/ha [7] | other results
1 | CN1C[C@@H](c2ccc(C(F)(F)F)cc2)[C@H](C(=O)Nc2cccc(Cl)c2C#N)C1=O (racemic) [Compound 1645] | 0% | 20% | 70% | 0% | 70% | 80% | 0% | 0% | 0% | 0% | 0% | 0% | 0% | 0% | 0% | 0% | 40% | 40% | 0% | 40% | pest or weed control at 250 g/ha [7]: 50%; pest or weed control at 15.625 g/ha [8]: 0%; pest or weed control at 62.5 g/ha [8]: 30%; pest or weed control at 250 g/ha [8]: 60%; pest or weed control at 15.625 g/ha [9]: 0%; pest or weed control at 62.5 g/ha [9]: 0%; pest or weed control at 250 g/ha [9]: 10%; pest or weed control at 15.625 g/ha [10]: 0%; pest or weed control at 62.5 g/ha [10]: 0%; pest or weed control at 250 g/ha [10]: 0%; plant injury at 15.625 g/ha (corn (Zea mays) [11]): 0%; plant injury at 62.5 g/ha (corn (Zea mays) [11]): 0%; plant injury at 250 g/ha (corn (Zea mays) [11]): 0%; pest or weed control at 15.625 g/ha [12]: 0%; pest or weed control at 62.5 g/ha [12]: 10%; pest or weed control at 250 g/ha [12]: 10%
2 | CN1C[C@H](c2ccc(C(F)(F)F)cc2)[C@@H](C(=O)Nc2ccc(C(F)(F)F)c(F)c2F)C1=O (racemic) [Compound 1451] | 0% | 0% | 0% | 0% | 0% | 0% | 0% | 0% | 0% | 0% | 0% | 0% | 0% | 0% | 0% | 0% | 0% | 0% | 0% | 0% | pest or weed control at 250 g/ha [7]: 0%; pest or weed control at 15.625 g/ha [8]: 0%; pest or weed control at 62.5 g/ha [8]: 0%; pest or weed control at 250 g/ha [8]: 0%; pest or weed control at 15.625 g/ha [9]: 0%; pest or weed control at 62.5 g/ha [9]: 0%; pest or weed control at 250 g/ha [9]: 0%; pest or weed control at 15.625 g/ha [10]: 0%; pest or weed control at 62.5 g/ha [10]: 0%; pest or weed control at 250 g/ha [10]: 0%; plant injury at 15.625 g/ha (corn (Zea mays) [11]): 0%; plant injury at 62.5 g/ha (corn (Zea mays) [11]): 0%; plant injury at 250 g/ha (corn (Zea mays) [11]): 0%; pest or weed control at 15.625 g/ha [12]: 0%; pest or weed control at 62.5 g/ha [12]: 0%; pest or weed control at 250 g/ha [12]: 0%
